# Reference: ChEMBL document CHEMBL1201862, “PubChem BioAssay data set” (2004)
# Activity calls are given as the source filed them.
# Columns and labels:
# [1] = target: Eukaryotic translation initiation factor 4H (Homo sapiens, UniProt Q15056); assay: eIF4H inhibition in translation initiation, SAR follow-up (AID 435011); assay type: functional
# [2] = target: Polyadenylate-binding protein 1 (Homo sapiens, UniProt P11940); assay: PABP inhibition in translation initiation, SAR follow-up (AID 435018); assay type: functional
# [3] = target: T1, Mannose-6-phosphate isomerase (Homo sapiens, UniProt P34949); assay: Confirmation of compounds inhibiting phosphomannose isomerase (PMI) via a fluorescence intensity assay using a high concentration of mannose 6-phosphate. [Related pubchem assays (depositor defined):AID1209, AID1220, AID1545, AID1553, AID1620]
# T1 sequence (P34949 whole entry): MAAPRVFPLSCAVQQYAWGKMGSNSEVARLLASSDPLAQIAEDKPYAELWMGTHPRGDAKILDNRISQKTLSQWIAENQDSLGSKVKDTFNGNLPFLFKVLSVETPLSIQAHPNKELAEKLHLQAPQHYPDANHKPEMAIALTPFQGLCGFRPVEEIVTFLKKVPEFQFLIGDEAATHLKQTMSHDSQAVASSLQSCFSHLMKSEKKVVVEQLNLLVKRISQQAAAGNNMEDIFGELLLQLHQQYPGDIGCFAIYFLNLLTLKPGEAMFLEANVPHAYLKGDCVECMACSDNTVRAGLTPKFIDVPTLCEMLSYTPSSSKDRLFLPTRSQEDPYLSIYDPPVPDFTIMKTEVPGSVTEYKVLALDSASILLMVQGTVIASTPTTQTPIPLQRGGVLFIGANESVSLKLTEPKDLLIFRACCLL
# [4] = target: T1, Mannose-6-phosphate isomerase; assay: PMI enzyme inhibitors, confirmation, biochemical, fluorescence intensity (AID 1535)
# [5] = target: Alkaline phosphatase, placental type (Homo sapiens, UniProt P05187); assay: PLAP enzyme inhibitors, confirmation, biochemical, luminescence (AID 1512); assay type: functional
# [6] = target: T2, Tyrosine-protein phosphatase non-receptor type 7 (Homo sapiens, UniProt P35236); assay: Dose Response confirmation of compounds that inhibit HePTP. [Related pubchem assays (depositor defined):AID1059, AID1661, AID2085]; assay type: functional
# T2 sequence (P35236 whole entry): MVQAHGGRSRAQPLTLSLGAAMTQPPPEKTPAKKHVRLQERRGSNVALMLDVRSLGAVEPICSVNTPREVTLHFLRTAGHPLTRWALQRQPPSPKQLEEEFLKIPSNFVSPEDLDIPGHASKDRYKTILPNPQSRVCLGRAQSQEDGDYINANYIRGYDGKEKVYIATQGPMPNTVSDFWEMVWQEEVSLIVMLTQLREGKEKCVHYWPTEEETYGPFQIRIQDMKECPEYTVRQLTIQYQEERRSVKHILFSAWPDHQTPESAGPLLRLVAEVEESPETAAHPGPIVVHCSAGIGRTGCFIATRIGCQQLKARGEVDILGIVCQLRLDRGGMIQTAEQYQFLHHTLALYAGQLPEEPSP
# [7] = target: T3, Dual specificity protein phosphatase 3 (Homo sapiens, UniProt P51452); assay: Dose Response Confirmation of compounds that inhibit VHR1 in Fluorescent Assay. [Related pubchem assays (depositor defined):AID1661, AID1878]; assay type: functional
# [8] = target: Cytochrome P450 2C19 (Homo sapiens, UniProt P33261); assay: Cytochrome panel assay with activity outcomes. Panel member name: p450-cyp2c19 Compounds with AC50 equal or less than 10 uM are considered active; assay type: functional; conditions: read-out: AC50
# [9] = target: T3, Dual specificity protein phosphatase 3; assay: SAR VHR1 Fluorescent Assay for In Vitro dose response studies Set 3. [Related pubchem assays (depositor defined):AID1654, AID1661, AID1878]; assay type: functional
# [10] = target: T4, Cytochrome P450 1A2 (Homo sapiens, UniProt P05177);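 further: PubChem cytochrome P450 panel assay, CYP1A2 panel member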
# T4 sequence (P05177 whole entry): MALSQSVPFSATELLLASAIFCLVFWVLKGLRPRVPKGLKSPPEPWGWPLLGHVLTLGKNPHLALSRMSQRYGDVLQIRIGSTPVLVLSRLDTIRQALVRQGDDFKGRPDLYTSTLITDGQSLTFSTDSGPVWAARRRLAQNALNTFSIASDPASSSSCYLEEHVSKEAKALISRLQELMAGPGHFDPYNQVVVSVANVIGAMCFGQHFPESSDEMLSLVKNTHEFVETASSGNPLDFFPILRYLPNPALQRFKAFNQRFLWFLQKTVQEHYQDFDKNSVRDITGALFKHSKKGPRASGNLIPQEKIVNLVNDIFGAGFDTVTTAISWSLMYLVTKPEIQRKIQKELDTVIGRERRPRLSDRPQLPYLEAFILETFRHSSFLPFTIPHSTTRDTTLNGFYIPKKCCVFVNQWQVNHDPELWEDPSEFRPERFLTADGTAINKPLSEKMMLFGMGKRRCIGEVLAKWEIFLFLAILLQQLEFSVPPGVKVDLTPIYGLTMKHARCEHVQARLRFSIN
# [11] = target: Cytochrome P450 3A4 (Homo sapiens, UniProt P08684);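 further: CYP3A4 tested as one member of a cytochrome P450 panel screen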
# [12] = target: Cytochrome P450 2C9 (Homo sapiens, UniProt P11712)
# [13] = A cytotoxicity screen of small molecule inhibitors of the PhoP region in Salmonella typhi identified in the primary screen. [Related pubchem assays: 1850, 1864, 1985 ]; assay type: functional
# [14] = target: T5, Bcl-2-related protein A1 (Mus musculus, UniProt Q07440); assay: Bfl-1 inhibitors, primary screen, biochemical, fluorescence polarization, FITC-Bid, mouse (AID 432)
# T5 sequence (Q07440 whole entry): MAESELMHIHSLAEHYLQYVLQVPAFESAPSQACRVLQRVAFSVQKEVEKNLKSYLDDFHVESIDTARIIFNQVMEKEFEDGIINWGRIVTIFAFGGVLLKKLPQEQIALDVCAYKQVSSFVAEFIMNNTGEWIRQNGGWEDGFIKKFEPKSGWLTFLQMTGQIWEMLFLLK
# [15] = target: T5, Bcl-2-related protein A1; assay: Bfl-1 inhibitors blocking BH3 peptide binding, confirmation, biochemical, TR-FRET, mouse Bfl-1 (AID 621);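 further: TR-FRET binding of GST-Bfl-1 to FITC-labelled Bid peptide via terbium antibody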
# [16] = target: NACHT, LRR and PYD domains-containing protein 3 (Homo sapiens, UniProt Q96P20); assay: NALP3 inhibitors in yeast, dose response, luminescent (AID 488799); assay type: functional
# [17] = inhibition of K1F phage lysis, E. coli UTI89, bacterial capsule biogenesis inhibitors, alamar blue (AID 488966); assay type: functional
# T3 sequence (P51452 whole entry): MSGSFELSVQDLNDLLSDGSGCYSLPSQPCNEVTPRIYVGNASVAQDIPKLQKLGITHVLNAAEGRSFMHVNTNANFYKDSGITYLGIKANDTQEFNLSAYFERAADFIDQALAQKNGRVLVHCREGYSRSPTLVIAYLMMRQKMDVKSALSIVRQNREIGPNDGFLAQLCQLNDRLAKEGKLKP
# Chain of NACHT, LRR and PYD domains-containing protein 3 (Q96P20 whole entry, the tested form may be a part): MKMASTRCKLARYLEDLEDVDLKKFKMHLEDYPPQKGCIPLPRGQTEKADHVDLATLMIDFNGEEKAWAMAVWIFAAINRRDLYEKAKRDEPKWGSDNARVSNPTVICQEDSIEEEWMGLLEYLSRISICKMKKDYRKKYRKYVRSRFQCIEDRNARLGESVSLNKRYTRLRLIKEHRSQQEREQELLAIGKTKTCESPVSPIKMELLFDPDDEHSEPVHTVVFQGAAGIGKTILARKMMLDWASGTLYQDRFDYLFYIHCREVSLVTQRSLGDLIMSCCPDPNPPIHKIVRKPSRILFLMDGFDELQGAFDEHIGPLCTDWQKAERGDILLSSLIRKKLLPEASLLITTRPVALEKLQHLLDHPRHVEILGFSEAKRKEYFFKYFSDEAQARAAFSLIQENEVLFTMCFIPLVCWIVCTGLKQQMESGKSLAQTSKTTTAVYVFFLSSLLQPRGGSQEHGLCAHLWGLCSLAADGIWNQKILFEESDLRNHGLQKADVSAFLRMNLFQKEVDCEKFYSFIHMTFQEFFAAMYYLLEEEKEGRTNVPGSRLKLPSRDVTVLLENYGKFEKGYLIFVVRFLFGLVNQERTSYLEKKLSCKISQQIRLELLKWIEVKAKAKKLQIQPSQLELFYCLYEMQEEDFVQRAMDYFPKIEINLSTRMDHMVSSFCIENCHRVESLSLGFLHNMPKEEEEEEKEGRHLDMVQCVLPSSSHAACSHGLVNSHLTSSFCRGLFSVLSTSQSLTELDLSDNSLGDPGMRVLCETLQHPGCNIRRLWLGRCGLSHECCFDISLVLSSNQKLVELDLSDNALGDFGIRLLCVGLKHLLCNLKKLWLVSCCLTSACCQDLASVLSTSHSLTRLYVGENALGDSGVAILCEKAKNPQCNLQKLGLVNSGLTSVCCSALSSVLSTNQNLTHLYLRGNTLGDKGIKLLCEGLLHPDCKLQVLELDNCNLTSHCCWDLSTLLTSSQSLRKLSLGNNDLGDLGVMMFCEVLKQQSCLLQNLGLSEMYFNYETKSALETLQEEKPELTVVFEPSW
# Chain of Polyadenylate-binding protein 1 (P11940 whole entry): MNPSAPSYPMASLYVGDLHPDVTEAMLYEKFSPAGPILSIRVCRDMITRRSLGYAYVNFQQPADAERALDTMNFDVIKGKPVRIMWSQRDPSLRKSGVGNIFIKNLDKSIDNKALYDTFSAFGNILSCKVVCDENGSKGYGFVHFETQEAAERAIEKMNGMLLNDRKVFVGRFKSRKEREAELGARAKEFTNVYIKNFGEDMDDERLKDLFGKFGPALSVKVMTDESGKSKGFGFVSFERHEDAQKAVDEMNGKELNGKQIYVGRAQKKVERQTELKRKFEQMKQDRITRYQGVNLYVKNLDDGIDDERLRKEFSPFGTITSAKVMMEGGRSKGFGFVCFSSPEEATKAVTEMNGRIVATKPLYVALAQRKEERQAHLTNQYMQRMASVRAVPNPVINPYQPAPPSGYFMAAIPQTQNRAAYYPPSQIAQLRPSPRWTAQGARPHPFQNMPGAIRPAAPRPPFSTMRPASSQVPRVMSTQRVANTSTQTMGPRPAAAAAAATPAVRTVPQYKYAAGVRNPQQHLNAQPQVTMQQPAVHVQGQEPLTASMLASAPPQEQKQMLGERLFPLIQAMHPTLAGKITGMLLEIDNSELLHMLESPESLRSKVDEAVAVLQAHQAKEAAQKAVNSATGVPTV
# Chain of Cytochrome P450 2C19 (P33261 whole entry): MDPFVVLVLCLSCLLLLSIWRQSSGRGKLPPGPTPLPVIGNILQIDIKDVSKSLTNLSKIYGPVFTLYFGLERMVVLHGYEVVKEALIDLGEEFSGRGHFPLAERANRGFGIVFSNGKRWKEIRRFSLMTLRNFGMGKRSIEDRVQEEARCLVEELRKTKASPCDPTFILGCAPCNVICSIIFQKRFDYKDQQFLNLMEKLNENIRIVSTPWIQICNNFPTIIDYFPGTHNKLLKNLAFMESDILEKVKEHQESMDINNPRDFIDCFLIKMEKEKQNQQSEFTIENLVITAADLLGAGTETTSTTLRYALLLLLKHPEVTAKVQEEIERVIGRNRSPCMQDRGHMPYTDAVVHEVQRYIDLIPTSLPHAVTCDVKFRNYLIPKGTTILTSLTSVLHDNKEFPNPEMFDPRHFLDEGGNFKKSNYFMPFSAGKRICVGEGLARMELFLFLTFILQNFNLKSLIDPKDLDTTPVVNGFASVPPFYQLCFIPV
# Chain of Alkaline phosphatase, placental type (P05187 whole entry): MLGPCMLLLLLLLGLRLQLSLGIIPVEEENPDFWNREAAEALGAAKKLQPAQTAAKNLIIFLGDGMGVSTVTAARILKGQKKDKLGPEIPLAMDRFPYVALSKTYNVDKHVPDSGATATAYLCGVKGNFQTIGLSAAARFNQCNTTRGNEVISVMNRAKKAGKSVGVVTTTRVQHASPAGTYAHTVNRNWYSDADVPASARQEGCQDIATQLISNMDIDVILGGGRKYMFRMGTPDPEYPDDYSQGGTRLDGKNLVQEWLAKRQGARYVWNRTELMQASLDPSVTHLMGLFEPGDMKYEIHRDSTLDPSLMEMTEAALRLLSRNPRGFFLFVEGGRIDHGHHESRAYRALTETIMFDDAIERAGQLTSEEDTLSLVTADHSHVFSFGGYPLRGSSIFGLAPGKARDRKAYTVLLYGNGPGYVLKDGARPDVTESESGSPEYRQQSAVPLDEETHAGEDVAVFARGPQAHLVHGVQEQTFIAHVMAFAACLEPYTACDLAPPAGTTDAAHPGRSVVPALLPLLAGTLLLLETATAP
# Chain of Cytochrome P450 2C9 (P11712 whole entry): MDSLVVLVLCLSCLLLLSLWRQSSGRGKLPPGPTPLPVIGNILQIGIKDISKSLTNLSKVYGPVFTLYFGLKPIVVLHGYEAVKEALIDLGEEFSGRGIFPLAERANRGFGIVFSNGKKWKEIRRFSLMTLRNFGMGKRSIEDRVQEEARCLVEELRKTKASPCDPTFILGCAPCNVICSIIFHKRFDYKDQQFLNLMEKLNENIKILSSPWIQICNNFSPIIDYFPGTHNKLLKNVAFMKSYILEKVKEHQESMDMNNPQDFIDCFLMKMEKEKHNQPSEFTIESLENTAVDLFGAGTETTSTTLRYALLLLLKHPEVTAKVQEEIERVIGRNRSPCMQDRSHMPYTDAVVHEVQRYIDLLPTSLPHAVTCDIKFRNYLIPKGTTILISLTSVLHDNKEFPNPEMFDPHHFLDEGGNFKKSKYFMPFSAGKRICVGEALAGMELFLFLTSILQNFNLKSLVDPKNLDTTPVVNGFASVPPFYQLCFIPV
# Chain of Cytochrome P450 3A4 (P08684 whole entry): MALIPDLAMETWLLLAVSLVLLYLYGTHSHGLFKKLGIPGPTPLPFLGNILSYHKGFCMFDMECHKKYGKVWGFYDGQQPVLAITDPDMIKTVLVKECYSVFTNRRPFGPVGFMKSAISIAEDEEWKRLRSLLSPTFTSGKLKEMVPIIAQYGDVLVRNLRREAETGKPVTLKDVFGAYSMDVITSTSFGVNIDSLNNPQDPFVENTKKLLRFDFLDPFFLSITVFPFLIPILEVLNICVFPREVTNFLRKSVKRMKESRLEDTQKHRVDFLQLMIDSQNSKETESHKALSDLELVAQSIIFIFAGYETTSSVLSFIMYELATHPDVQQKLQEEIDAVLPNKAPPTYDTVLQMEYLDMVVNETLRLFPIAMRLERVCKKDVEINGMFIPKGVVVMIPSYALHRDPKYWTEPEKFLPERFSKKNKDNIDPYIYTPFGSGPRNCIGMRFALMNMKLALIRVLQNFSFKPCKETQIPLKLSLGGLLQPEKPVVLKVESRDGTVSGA
smiles,measurement,setting,value
COc1cc(NC(=O)CSc2ccc(-c3ccco3)nn2)cc(OC)c1,IC50,[1],62.7 µM (active)
same,IC50,[2],> 100 µM (inactive)
O=C1N(Cc2ccccc2)c2ccccc2C12NNc1ccccc1O2 (configuration not stated),IC50,[3],> 100 µM (inactive)
same,IC50,[4],> 100 µM (inactive)
same,IC50,[5],> 100 µM (inactive)
Cc1ccc(-c2nc3ccccc3s2)cc1NC(=O)c1cc(-n2cnnc2)ccc1Cl,IC50,[6],4.69 µM (active)
same,IC50,[7],2.21 µM (active)
same,AC50,[8],0.794 µM (inconclusive)
same,IC50,[9],3.69 µM (active)
same,AC50,[10],2.24 µM (inconclusive)
same,AC50,[11],0.891 µM (inconclusive)
same,AC50,[12],2.51 µM (inconclusive)
O=C(Nc1cccc(Br)c1)c1cc2ccccc2o1,EC50,[13],> 50 µM (active)
same,IC50,[14],> 100 µM (not active)
same,IC50,[15],> 100 µM (not active)
same,IC50,[16],9.81 µM (active)
Cc1cc(NCCN)nc2ccccc12,IC50,[17],> 300 µM (active)
